According to patent US20110294853A1, “Bis Aromatic Compounds for Use in the Treatment of Inflammation” (priority 2008, published 2011):

These molecules were tested against T1, Recombinant human LTC4 synthase (Homo sapiens, UniProt Q16873) (assay: In vitro assay of LTC4 synthase inhibition (HPLC or HTRF detection of LTC4)). Settings: inhibitor concentration 10 μM; percentage inhibitions of LTC4.
T1 construct: made in house; host or cells: Pichia pastoris ('Piccia pastoralis' [sic])
T1 sequence (Q16873 1-150): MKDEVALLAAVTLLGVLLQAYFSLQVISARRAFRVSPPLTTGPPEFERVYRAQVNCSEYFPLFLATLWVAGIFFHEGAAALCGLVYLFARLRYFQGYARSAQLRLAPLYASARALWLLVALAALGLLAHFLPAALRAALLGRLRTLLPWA
Format: biochemical
Description: In the assay LTC4 synthase catalyses the reaction where the substrate LTA4 methyl ester is converted to the corresponding LTC4 methyl ester. Recombinant human LTC4 synthase is expressed in Piccia pastoralis and the purified enzyme is dissolved in 25 mM Tris-buffer pH 7.8 and stored at −20° C. The assay is performed in phosphate buffered saline (PBS) pH 7.4, supplemented with 5 mM glutathione (GSH). The reaction is terminated by addition of acetonitrile/MeOH/acetic acid (50/50/1). The assay is performed at rt in 96-well plates. Analysis of the formed LTC4 methyl ester is performed with reversed phase HPLC (Waters 2795 utilizing an Onyx Monolithic C18 column). The mobile phase consists of acetonitrile/MeOH/H2O (32.5/30/37.5) with 1% acetic acid pH adjusted with NH3 to pH 5.6, and absorbance measured at 280 nm with a Waters 2487 UV-detector.
The following is added chronologically to each well: • 1. 50 μL assay buffer, PBS with 5 mM GSH. • 2. 0.5 μL inhibitor in DMSO. • 3. 2 μL LTC4 synthase in PBS. The total protein concentration in this solution is 0.025 mg/mL. Incubation of the plate at room temperature for 10 minutes. • 4. 0.5 μL LTA4 methyl ester. Incubation of the plate at rt for 1 min. • 5. 50 μL stop solution. • 80 μL of the incubation mixture is analysed with HPLC.
Alternatively HTRF detection of LTC4 can be used:
In the assay, LTC4 synthase catalyses the reaction where the substrate LTA4 is converted to LTC4. Recombinant human LTC4 synthase is expressed in Piccia pastoralis and the purified enzyme is dissolved in 25 mM Tris-buffer pH 7.8 supplemented with 0.1 mM glutathione (GSH) and stored at −80° C. The assay is performed in phosphate buffered saline (PBS) pH 7.4 and 5 mM GSH in 384-well plates.
The following is added chronologically to each well:
1. 48 μL LTC4 synthase in PBS with 5 mM GSH. The total protein concentration in this solution is 0.5 μg/mL. 2. 1 μL inhibitor in DMSO (final concentration 10 μM). 3. Incubation of the plate at rt for 10 min. 4. 1 μL LTA4 (final concentration 2.5 μM). 5. Incubation of the plate at rt for 5 min. 6. 10 μl of the incubation mixture is analysed using HTRF detection.
With `COc1ccc(C(=O)Nc2ccc(CCc3ccc(NC(=O)c4cccc(C(F)(F)F)c4)c(C(=O)O)c3)cc2C(=O)O)cc1` [2:1, 5-{2-[3-Carboxy-4-(4-methoxybenzoylamino)phenyl]ethyl}-2-(3-trifluoromethylbenzoylamino)benzoic acid] the inhibition at 10 µM was 87%.
In the case of `CC(C)(C)c1ccc(C(=O)Nc2ccc(CCc3ccc(NC(=O)c4cccc(C(F)(F)F)c4)c(C(=O)O)c3)cc2C(=O)O)cc1` [2:2, 5-{2-[3-Carboxy-4-(4-tert-butylbenzoylamino)-phenyl]ethyl}-2-(3-trifluoromethylbenzoylamino)benzoic acid], the inhibition at 10 µM is reported as 100%.
With `O=C(Nc1ccc(CCc2ccc(NC(=O)c3ccc(C(F)(F)F)cc3)c(C(=O)O)c2)cc1)c1cccc(C(F)(F)F)c1` [2:3, 2-(4-Trifluoromethylbenzoylamino)-5-{2-[4-(3-trifluoromethylbenzoylamino)-phenyl]-ethyl}benzoic acid] the inhibition at 10 µM was 85%.
For `O=C(Nc1ccc(CCc2ccc(NC(=O)c3cccc(C(F)(F)F)c3)c(C(=O)O)c2)cc1C(=O)O)c1ccc(C(F)(F)F)cc1` [2:4, 5-{2-[3-Carboxy-4-(4-trifluoromethyl-benzoylamino)-phenyl]ethyl}-2-(3-trifluoromethylbenzoylamino)benzoic acid], the inhibition at 10 µM was 98%.
In the case of `O=C(Nc1ccc(C#Cc2ccc(NC(=O)c3ccc(C(F)(F)F)cc3)c(C(=O)O)c2)cc1)c1cccc(C(F)(F)F)c1` [2:5, 2-(4-Trifluoromethylbenzoylamino)-5-[4-(3-trifluoromethylbenzoylamino)-phenylethynyl]-benzoic acid], the inhibition at 10 µM is reported as 89%.
With `CCCCc1ccc(C(=O)Nc2ccc(OCc3ccc(NC(=O)c4cccc(Cl)c4)c(C(=O)O)c3)cc2C(=O)O)cc1` [3:1, 2-(4-Butylbenzoylamino)-5-[3-carboxy-4-(3-chlorobenzoylamino)benzyloxy]-benzoic acid] the inhibition at 10 µM was 100%.
With `O=C(Nc1ccc(COc2ccc(NC(=O)c3cccc(Cl)c3)c(C(=O)O)c2)cc1C(=O)O)c1cccc(Cl)c1` [3:2, 2-(3-Chlorobenzoylamino)-5-[3-carboxy-4-(3-chlorobenzoylamino)-benzyloxy]-benzoic acid] the inhibition at 10 µM was 100%.
For `CCCCc1ccc(C(=O)Nc2ccc(NC(=O)c3ccc(NC(=O)c4ccc(OC(C)C)cc4)cc3)cc2C(=O)O)cc1` [4:1, 2-(4-Butylbenzoylamino)-5-[4-(4-isopropoxy-benzoylamino)benzoyl-amino]-benzoic acid], the inhibition at 10 µM was 79%.
`CCCCc1ccc(C(=O)Nc2ccc(NC(=O)c3ccc(NC(=O)c4ccccc4)cc3)cc2C(=O)O)cc1` [4:2, 5-(4-Benzoylaminobenzoylamino)-2-(4-butylbenzoylamino)benzoic acid] was tested, and the inhibition at 10 µM was 96%.
In the case of `CCCCc1ccc(C(=O)Nc2ccc(NC(=O)c3ccc(NS(=O)(=O)c4cccc(Cl)c4C)cc3)cc2C(=O)O)cc1` [4:3, 2-(4-Butylbenzoylamino)-5-[4-(3-chloro-2-methylbenzenesulfonylamino)-benzoylamino]-benzoic acid], the inhibition at 10 µM is reported as 100%.
`O=C(O)c1cc(NS(=O)(=O)c2ccc(Oc3ccccc3)cc2)ccc1NS(=O)(=O)c1ccc(OC(F)(F)F)cc1` [5:1, 5-(4-Phenoxyphenylsulfonamido)-2-(4-(trifluoromethoxy)phenylsulfonamido)benzoic acid] was tested, and the inhibition at 10 µM was 100%.
Work on `CCCCc1ccc(S(=O)(=O)Nc2ccc(NS(=O)(=O)c3ccc(Oc4ccccc4Cl)cc3)cc2C(=O)O)cc1` [5:3, 2-(4-Butylphenylsulfonamido)-5-(4-(2-chloro-phenoxy)-phenylsulfonamido)benzoic acid] yielded an inhibition at 10 µM of 98%.
`CCCCc1ccc(S(=O)(=O)Nc2ccc(NS(=O)(=O)c3ccc(Oc4ccccc4OC)cc3)cc2C(=O)O)cc1` [5:4, 2-(4-Butylphenylsulfonamido)-5-(4-(2-methoxy-phenoxy)phenylsulfonamido)benzoic acid] showed an inhibition at 10 µM of 100%.
`CCCCOc1ccc(S(=O)(=O)Nc2ccc(NS(=O)(=O)c3ccc(Oc4ccccc4Cl)cc3)cc2C(=O)O)cc1` [5:5, 2-(4-Butoxyphenylsulfonamido)-5-(4-(2-chloro-phenoxy)-phenylsulfonamido)benzoic acid] gave an inhibition at 10 µM of 99%.
For `CCCCOc1ccc(S(=O)(=O)Nc2ccc(NCc3cccc(Oc4ccc(C(C)(C)C)cc4)c3)cc2C(=O)O)cc1` [6:1, 2-(4-Butoxyphenylsulfonamido)-5-(3-(4-tert-butylphenoxy)benzylamino)benzoic acid], the inhibition at 10 µM was 100%.
For `CCCCOc1ccc(S(=O)(=O)Nc2ccc(NCc3cccc(OCc4ccccc4Cl)c3)cc2C(=O)O)cc1` [6:2, 2-(4-Butoxyphenylsulfonamido)-5-(3-(2-chlorobenzyloxy)benzylamino)benzoic acid], the inhibition at 10 µM was 100%.
Molecule `O=C(O)c1cc(-c2ccc(NS(=O)(=O)c3ccccc3)c(C(=O)O)c2)ccc1NS(=O)(=O)c1ccccc1` [Example 1:2, 4,4′-bis(phenylsulfonamido)biphenyl-3,3′-dicarboxylic acid] has an inhibition at 10 µM of 92%.
With `O=C(Nc1ccc(-c2ccc(NC(=O)c3cccc(Cl)c3)c(C(=O)O)c2)cc1C(=O)O)c1cccc(Cl)c1` [Example 1:3, 4,4′-bis(3-chlorobenzamido)biphenyl-3,3′-dicarboxylic acid] the inhibition at 10 µM was 88%.
`O=C(Nc1cccc(Cl)c1)Nc1ccc(-c2ccc(NC(=O)Nc3cccc(Cl)c3)c(C(=O)O)c2)cc1C(=O)O` [Example 1:4, 4,4′-bis(3-(3-chlorophenyl)ureido)biphenyl-3,3′-dicarboxylic acid] showed an inhibition at 10 µM of 99%.
`O=C(O)c1cc(-c2ccc(NS(=O)(=O)c3cccnc3)c(C(=O)O)c2)ccc1NS(=O)(=O)c1cccnc1` [Example 1:5, 4,4′-bis(pyridine-3-sulfonamido)biphenyl-3,3′-dicarboxylic acid] showed an inhibition at 10 µM of 69%.
With `CC(C)(C)c1ccc(C(=O)Nc2ccc(-c3ccc(NC(=O)c4ccc(C(C)(C)C)cc4)c(C(=O)O)c3)cc2C(=O)O)cc1` [Example 1:6, 4,4′-bis(4-tert-butylbenzamido)biphenyl-3,3′-dicarboxylic acid] the inhibition at 10 µM was 100%.
`O=C(Cc1ccc(Cl)cc1)Nc1ccc(-c2ccc(NC(=O)Cc3ccc(Cl)cc3)c(C(=O)O)c2)cc1C(=O)O` [Example 1:7, 4,4′-bis(2-(4-chlorophenyl)acetamido)biphenyl-3,3′-dicarboxylic acid] was tested, and the inhibition at 10 µM was 100%.
`Nc1ccccc1C(=O)Nc1ccc(-c2ccc(NC(=O)c3ccccc3N)c(C(=O)O)c2)cc1C(=O)O` [Example 1:8, 4,4′-bis(2-aminobenzamido)biphenyl-3,3′-dicarboxylic acid] gave an inhibition at 10 µM of 100%.
Work on `Cc1ccc(S(=O)(=O)Nc2ccc(-c3ccc(NS(=O)(=O)c4ccc(C)cc4)c(C(=O)O)c3)cc2C(=O)O)cc1` [Example 1:9, 4,4′-bis(4-methylphenylsulfonamido)biphenyl-3,3′-dicarboxylic acid] yielded an inhibition at 10 µM of 89%.
Work on `O=C(O)c1cc(-c2ccc(NC(=O)c3cccc4ccccc34)c(C(=O)O)c2)ccc1NC(=O)c1cccc2ccccc12` [Example 1:10, 4,4′-bis(1-naphthamido)biphenyl-3,3′-dicarboxylic acid] yielded an inhibition at 10 µM of 98%.
With `O=C(Nc1ccc(-c2ccc(NC(=O)c3ccccc3)c(C(=O)O)c2)cc1C(=O)O)c1ccccc1` [Example 1:11, 4,4′-bis(benzamido)biphenyl-3,3′-dicarboxylic acid] the inhibition at 10 µM was 95%.
`CC(=O)Oc1ccc(C(=O)Nc2ccc(-c3ccc(NC(=O)c4ccc(OC(C)=O)cc4)c(C(=O)O)c3)cc2C(=O)O)cc1` [Example 1:12, 4,4′-bis(4-acetoxybenzamido)biphenyl-3,3′-dicarboxylic acid] was tested, and the inhibition at 10 µM was 97%.
`CCCCc1ccc(S(=O)(=O)Nc2ccc(NS(=O)(=O)c3ccc(Oc4ccccc4)cc3)cc2C(=O)O)cc1` [Example 5:2, 2-(4-Butylphenylsulfonamido)-5-(4-phenoxyphenylsulfonamido)-benzoic acid] gave an inhibition at 10 µM of 100%.
